{"source": "patent US9242958B2", "about": "“Substituted pyridazine carboxamide compounds as kinase inhibitor compounds” (Xcovery Holding Company LLC, priority 2010, dated 2016)", "key": {"ALK": {"target": "T1, ALK (Homo sapiens, UniProt Q9UM73)", "T1 construct": "T7 phage fusion (kinase-tagged T7 phage), or alternatively a DNA tag for qPCR; made in house; host or cells: E. coli BL21-derived host (T7 phage display) or HEK-293 cells", "T1 sequence (Q9UM73 19-1620)": "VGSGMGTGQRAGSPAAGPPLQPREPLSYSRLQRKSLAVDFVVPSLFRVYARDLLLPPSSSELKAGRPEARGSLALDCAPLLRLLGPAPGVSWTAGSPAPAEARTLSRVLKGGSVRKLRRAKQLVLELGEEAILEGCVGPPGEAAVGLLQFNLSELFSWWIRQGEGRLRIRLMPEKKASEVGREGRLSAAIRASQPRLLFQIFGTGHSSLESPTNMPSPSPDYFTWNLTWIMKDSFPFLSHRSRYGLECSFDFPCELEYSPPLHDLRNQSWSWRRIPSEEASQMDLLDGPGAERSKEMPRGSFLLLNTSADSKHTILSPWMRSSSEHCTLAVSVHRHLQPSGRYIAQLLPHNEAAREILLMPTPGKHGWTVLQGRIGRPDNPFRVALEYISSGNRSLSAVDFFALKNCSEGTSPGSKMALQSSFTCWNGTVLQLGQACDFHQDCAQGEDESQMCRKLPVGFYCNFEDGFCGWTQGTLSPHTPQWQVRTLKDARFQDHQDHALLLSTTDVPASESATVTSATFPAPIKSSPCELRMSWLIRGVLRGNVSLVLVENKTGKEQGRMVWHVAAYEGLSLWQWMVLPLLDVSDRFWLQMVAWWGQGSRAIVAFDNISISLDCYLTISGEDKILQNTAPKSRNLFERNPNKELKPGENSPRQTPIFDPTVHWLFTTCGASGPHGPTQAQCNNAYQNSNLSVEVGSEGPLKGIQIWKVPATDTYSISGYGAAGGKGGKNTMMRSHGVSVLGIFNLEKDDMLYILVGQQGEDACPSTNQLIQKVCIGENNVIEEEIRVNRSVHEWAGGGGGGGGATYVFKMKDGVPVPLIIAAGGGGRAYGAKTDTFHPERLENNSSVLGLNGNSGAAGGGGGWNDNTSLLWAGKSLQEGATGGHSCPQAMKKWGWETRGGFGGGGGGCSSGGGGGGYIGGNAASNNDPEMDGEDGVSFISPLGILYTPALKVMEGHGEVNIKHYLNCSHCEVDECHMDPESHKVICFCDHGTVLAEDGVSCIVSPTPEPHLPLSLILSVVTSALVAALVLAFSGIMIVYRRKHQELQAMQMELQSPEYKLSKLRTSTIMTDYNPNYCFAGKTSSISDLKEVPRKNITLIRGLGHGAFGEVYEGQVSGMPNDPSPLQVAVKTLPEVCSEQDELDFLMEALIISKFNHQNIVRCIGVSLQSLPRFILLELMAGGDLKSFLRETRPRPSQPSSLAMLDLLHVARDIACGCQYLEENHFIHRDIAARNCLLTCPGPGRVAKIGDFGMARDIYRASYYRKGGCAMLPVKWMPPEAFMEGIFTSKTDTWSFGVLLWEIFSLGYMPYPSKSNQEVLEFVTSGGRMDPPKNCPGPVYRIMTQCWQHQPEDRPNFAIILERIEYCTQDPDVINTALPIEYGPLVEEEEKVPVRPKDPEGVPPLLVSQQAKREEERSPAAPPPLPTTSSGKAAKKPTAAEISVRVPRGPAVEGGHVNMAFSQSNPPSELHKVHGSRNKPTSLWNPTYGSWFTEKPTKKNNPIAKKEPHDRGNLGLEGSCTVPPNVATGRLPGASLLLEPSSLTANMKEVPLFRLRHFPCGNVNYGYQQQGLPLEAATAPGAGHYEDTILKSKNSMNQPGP", "assay": "Kinase binding assay (ALK biochemical assay, affinity beads/qPCR)", "method": "(§1) Met, ALK Biochemical Assays\n(§2) Kinase Assays. […] 23, p. […] 26, p.\n(§3) For most assays, kinase-tagged T7 phage strains were grown in parallel in 24-well blocks in an E. coli host derived from the BL21 strain. E. coli were grown to log-phase and infected with T7 phage from a frozen stock (multiplicity of infection ˜0.1) and incubated with shaking at 32° C. until lysis (˜90 minutes). The lysates were centrifuged (6,000×g) and filtered ([…]) to remove cell debris. The remaining kinases were produced in HEK-293 cells and subsequently tagged with DNA for qPCR detection. […] The liganded beads were blocked with excess biotin and washed with blocking buffer (SeaBlock (Pierce), 1% BSA, 0.05% Tween 20, 1 mM DTT) to remove unbound ligand and to reduce non-specific phage binding. […] Test compounds were prepared as 40× stocks in 100% DMSO and directly diluted into the assay. All reactions were performed in polypropylene 384-well plates in a final volume of 0.04 ml. […] The kinase concentration in the eluates was measured by qPCR."}, "U-87 MG xenograft tumor": {"test_system": "U-87 MG xenograft tumor", "assay": "In vivo anti-tumor efficacy against U-87MG tumor xenograft model", "set-up": "species or system Balb/c nude mice", "method": "In Vivo Anti-Tumor Efficacy of Compound 1 of EXAMPLE 1 Against U-87MG Tumor Xenograft Model\nBalb/c nude mice (6 weeks old, male) were purchased from Shanghai Slac Laboratory Animal Co. Ltd (Shanghai, China). All mice were maintained in a pathogen-free facility for ˜2 weeks before implantation. They were housed in plastic cages (4˜6 mice/cage) containing corn cob and maintained in a pathogen-free facility (20˜25° C., 30˜70% humidity) with a 12-h light:dark cycle.\nU-87 MG xenograft model was established by implanting athymic Balb/c nude mice s.c in the right flank with U-87 MG cells, 3.6×10^6/mouse (120 ul). Tumors were allowed to reach 120˜380 mm^3 in size.\nTumor volumes were measured twice a week with caliper. Tumor volumes were calculated by the formula <Tumor volume=length×width^2/2>.\nPercentage of tumor growth inhibition (GI) after initiation of treatment was calculated by the formula: GI=100×{1−[(tumor volumefinal−tumor volumeinitial for the compound-treated group)/(tumor volumefinal−tumor volumeinitial for the vehicle-treated group)]} Relative tumor volume is defined as the ratio of the volume at a given time and the volume at the start of treatment. The relative tumor volume (RTV) was calculated by the formula: RTV=100×TVT/TV0"}, "c-Met": {"target": "T2, c-Met (Homo sapiens, UniProt P08581)", "T2 construct": "T7 phage fusion (kinase-tagged T7 phage), or alternatively a DNA tag for qPCR; made in house; host or cells: E. coli BL21-derived host (T7 phage display) or HEK-293 cells", "T2 sequence (P08581 25-1390)": "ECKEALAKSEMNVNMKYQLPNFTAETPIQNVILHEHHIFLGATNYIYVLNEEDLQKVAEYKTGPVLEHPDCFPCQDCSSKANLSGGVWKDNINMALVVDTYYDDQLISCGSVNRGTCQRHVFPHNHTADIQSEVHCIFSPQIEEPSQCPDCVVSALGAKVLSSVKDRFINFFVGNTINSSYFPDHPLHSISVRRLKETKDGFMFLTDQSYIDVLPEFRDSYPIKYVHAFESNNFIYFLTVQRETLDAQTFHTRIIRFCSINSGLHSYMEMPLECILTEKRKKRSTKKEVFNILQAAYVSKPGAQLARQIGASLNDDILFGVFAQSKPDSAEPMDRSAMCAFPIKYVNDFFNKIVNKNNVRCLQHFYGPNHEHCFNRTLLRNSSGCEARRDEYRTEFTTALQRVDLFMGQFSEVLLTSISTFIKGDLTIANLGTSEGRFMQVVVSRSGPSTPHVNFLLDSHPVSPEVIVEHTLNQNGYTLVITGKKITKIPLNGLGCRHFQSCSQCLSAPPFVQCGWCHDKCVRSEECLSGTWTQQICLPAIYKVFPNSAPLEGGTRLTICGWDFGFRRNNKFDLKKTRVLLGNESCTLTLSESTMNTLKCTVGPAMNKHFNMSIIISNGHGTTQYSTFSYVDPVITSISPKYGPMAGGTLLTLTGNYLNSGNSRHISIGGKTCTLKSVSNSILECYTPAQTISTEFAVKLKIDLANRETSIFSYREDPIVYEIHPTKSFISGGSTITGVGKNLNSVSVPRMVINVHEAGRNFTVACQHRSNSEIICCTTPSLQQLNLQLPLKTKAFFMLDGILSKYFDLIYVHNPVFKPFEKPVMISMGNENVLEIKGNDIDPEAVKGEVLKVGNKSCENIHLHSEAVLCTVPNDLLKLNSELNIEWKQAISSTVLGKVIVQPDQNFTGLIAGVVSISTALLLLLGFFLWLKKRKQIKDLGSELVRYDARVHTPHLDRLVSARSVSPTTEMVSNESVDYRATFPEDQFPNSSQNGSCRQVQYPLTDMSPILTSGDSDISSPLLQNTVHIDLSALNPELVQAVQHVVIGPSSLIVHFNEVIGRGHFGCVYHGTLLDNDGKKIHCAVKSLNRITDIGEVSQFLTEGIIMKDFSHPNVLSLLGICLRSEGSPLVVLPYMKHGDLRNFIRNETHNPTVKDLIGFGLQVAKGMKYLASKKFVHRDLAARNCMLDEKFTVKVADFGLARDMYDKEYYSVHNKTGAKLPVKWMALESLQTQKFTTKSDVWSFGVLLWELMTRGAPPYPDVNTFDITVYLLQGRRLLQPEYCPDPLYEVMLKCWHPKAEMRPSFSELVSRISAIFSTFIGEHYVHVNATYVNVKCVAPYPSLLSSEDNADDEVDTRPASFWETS", "assay": "Kinase binding assay (Met biochemical assay, affinity beads/qPCR)", "method": "as §1, §2, §3"}, "[1]": {"settings": "25 mg/kg ig BID, d28 post implantation"}, "[2]": {"settings": "25 mg/kg ig BID, d31 post implantation"}, "[3]": {"settings": "50 mg/kg ig BID, d28 post implantation"}, "[4]": {"settings": "50 mg/kg ig BID, d31 post implantation"}}, "note": "Marks after values point to notes of the source that are not given here."}
{"smiles": "C[C@@H](Oc1cc(C(=O)Nc2ccc(=O)n(C)c2)nnc1N)c1c(Cl)ccc(F)c1Cl", "note": "[Example 1, {5-[(1R)-1-(2,6-dichloro-3-fluorophenyl)ethoxy]-6-aminopyridazin-3-yl}-N-(1-methyl-6-oxo-1,6-dihydro-pyridin-3-yl)carboxamide]", "values": [{"measurement": "IC50", "setting": "ALK", "value": "> 10", "unit": "nM"}, {"measurement": "tumor volume (mean ± S.E)", "setting": "U-87 MG xenograft tumor; 25 mg/kg ig BID, d24 post implantation (start of treatment)", "value": "230.4 ± 23.0", "unit": "mm^3"}, {"measurement": "tumor growth inhibition GI", "setting": "U-87 MG xenograft tumor; [1]", "value": 62.14, "unit": "%"}, {"measurement": "tumor volume (mean ± S.E)", "setting": "U-87 MG xenograft tumor; [1]", "value": "365.7 ± 29.3** mm^3"}, {"measurement": "tumor growth inhibition GI", "setting": "U-87 MG xenograft tumor; [2]", "value": 77.04, "unit": "%"}, {"measurement": "tumor volume (mean ± S.E)", "setting": "U-87 MG xenograft tumor; [2]", "value": "453.7 ± 19.7** mm^3"}, {"measurement": "tumor volume (mean ± S.E)", "setting": "U-87 MG xenograft tumor; 25 mg/kg ig BID, d35 post implantation", "value": "627.7 ± 33.9** mm^3"}, {"measurement": "tumor growth inhibition GI", "setting": "U-87 MG xenograft tumor; 25 mg/kg ig BID, d35 post implantation (after 11 days of treatment)", "value": 65.95, "unit": "%"}, {"measurement": "tumor volume (mean ± S.E)", "setting": "U-87 MG xenograft tumor; 50 mg/kg ig BID, d24 post implantation (start of treatment)", "value": "230.2 ± 24.5", "unit": "mm^3"}, {"measurement": "tumor growth inhibition GI", "setting": "U-87 MG xenograft tumor; [3]", "value": 78.82, "unit": "%"}, {"measurement": "tumor volume (mean ± S.E)", "setting": "U-87 MG xenograft tumor; [3]", "value": "305.9 ± 22.0** mm^3"}, {"measurement": "tumor growth inhibition GI", "setting": "U-87 MG xenograft tumor; [4]", "value": 85.52, "unit": "%"}, {"measurement": "tumor volume (mean ± S.E)", "setting": "U-87 MG xenograft tumor; [4]", "value": "337.4 ± 27.8** mm^3"}, {"measurement": "tumor volume (mean ± S.E)", "setting": "U-87 MG xenograft tumor; 50 mg/kg ig BID, d35 post implantation", "value": "371.5 ± 34.4** mm^3"}, {"measurement": "tumor growth inhibition GI", "setting": "U-87 MG xenograft tumor; 50 mg/kg ig BID, d35 post implantation (after 11 days of treatment)", "value": 88.71, "unit": "%"}, {"measurement": "IC50", "setting": "c-Met", "value": "< 5", "unit": "nM"}]}
{"smiles": "CCn1cc(NC(=O)c2cc(OC(C)c3c(Cl)ccc(F)c3Cl)c(N)nn2)ccc1=O", "note": "(racemic) [Example 7, {6-amino-5-[(2,6-dichloro-3-fluorophenyl)ethoxy]pyridazin-3-yl}-N-(1-ethyl-6-oxo-1,6-dihydro-pyridin-3-yl)carboxamide]", "values": [{"measurement": "IC50", "setting": "ALK", "value": "> 10", "unit": "nM"}, {"measurement": "IC50", "setting": "c-Met", "value": "< 5", "unit": "nM"}]}
{"smiles": "CC(Oc1cc(C(=O)NC2CCC(=O)N(C)C2)nnc1N)c1c(Cl)ccc(F)c1Cl", "note": "(centres unmarked) [Example 4]", "values": [{"measurement": "IC50", "setting": "ALK", "value": "> 100", "unit": "nM"}, {"measurement": "IC50", "setting": "c-Met", "value": "> 100", "unit": "nM"}]}
{"smiles": "COCCn1cc(NC(=O)c2cc(OC(C)c3c(Cl)ccc(F)c3Cl)c(N)nn2)ccc1=O", "note": "(racemic) [Example 6, {6-amino-5-[(2,6-dichloro-3-fluorophenyl)ethoxy]pyridazin-3-yl}-N-[1-(2-methoxyethyl)-6-oxo-1,6-dihydro-pyridin-3-yl]carboxamide]", "values": [{"measurement": "IC50", "setting": "ALK", "value": "> 10", "unit": "nM"}, {"measurement": "IC50", "setting": "c-Met", "value": "< 5", "unit": "nM"}]}
{"smiles": "C[C@@H](Oc1cc(C(=O)Nc2ccc(C(=O)N3CCN(C)CC3)cc2)nnc1N)c1c(Cl)ccc(F)c1Cl", "note": "[reference compound]", "values": [{"measurement": "IC50", "setting": "ALK", "value": "< 5", "unit": "nM"}, {"measurement": "IC50", "setting": "c-Met", "value": "< 5", "unit": "nM"}]}
{"smiles": "CC(Oc1cc(C(=O)Nc2ccc(=O)[nH]c2)nnc1N)c1c(Cl)ccc(F)c1Cl", "note": "(racemic) [Example 5, {6-amino-5-[(2,6-dichloro-3-fluorophenyl)ethoxy]pyridazin-3-yl}-N-(6-oxo-1,6-dihydro-pyridin-3-yl)carboxamide]", "values": [{"measurement": "IC50", "setting": "ALK", "value": "> 10", "unit": "nM"}, {"measurement": "IC50", "setting": "c-Met", "value": "< 5", "unit": "nM"}]}
